Measurements reported in patent publication US10912843B2, “Endoplasmic reticulum-targeting nanovehicles and methods for use thereof” (National Cheng Kung University, priority 2018, dated 2021).

Legend:
[1] = system: differentiated HL-60 cells; test: Curcumin-induced extracellular calcium influx; type: cell-based
Description: Extracellular calcium influx, which is triggered by the depletion of ER calcium stores, was measured in cells treated with free curcumin or treated with curcumin-loaded nanoparticles as follows. Differentiated HL-60 cells were pretreated with free curcumin (10 μM), curcumin-loaded PLGA nanoparticles (0.5 μM), and curcumin-loaded ER-targeted PLGA nanoparticles (0.5 μM) at 37° C. overnight. Cells were washed with calcium-free HBSS, seeded on poly-lysine coated 8-well slides (ibidi, Planegg, Germany) at a density of 1×10^6 cells/ml, and incubated at 37° C. for 30 min. Cells were labeled with 2 μM of the calcium-sensitive fluorescent dye Fluo-4 AM and 1 μM of ER-tracker at 37° C. for 30 min. Labeled cells were treated with 1.25 mM CaCl2. Fluorescence images were captured by confocal microscopy every 10 s for 5 min. following the addition of CaCl2. Fluorescence intensities in these images were analyzed using ImageJ software. The change in fluorescence intensity over time divided by the baseline fluorescence intensity prior to calcium addition (ΔF/FO) was plotted versus time, and the rate of calcium level increase (ΔF/F/s) was derived from that plot. The overall calcium flux was calculated as the area under the curve (AUC) of a ΔF/F/s versus time curve.

[2] = system: differentiated HL-60 cells; test: Detection of apoptotic cells (Annexin V / 7-AAD); type: cell-based; settings: 10 μM, 24 hours; FIG. 5B
Description: (§1) Differentiated HL-60 cells were treated with 0.5 μM or 10 μM free curcumin, curcumin-loaded PLGA nanoparticles, or curcumin-loaded ER-targeted PLGA nanoparticles for 24 hours. Treated cells were labeled with 250 nM of the mitochondrial membrane potential indicator dye tetramethylrhodamine (TMRM) at 37° C. for 30 min. TMRM-labeled cells were analyzed by flow cytometry and their mitochondrial membrane potentials quantified using the Flowing Software 2 software package.
Cells treated as above with free or encapsulated curcumin were washed with ice-cold phosphate-buffered saline and stained with phycoerythrin-Annexin V and 7 amino-actinomycin D (7-AAD) at room temperature for 15 min. Annexin V binds to the surface of cells undergoing apoptosis, and 7-AAD only enters and stains apoptotic cells. Stained cells were subjected to flow cytometry analysis and the results analyzed using the Flowing Software 2 analysis package.

[3] = system: differentiated HL-60 cells; test: Mitochondrial membrane potential (TMRM, flow cytometry); type: cell-based; settings: 10 μM, 24 hours; FIG. 5A
Description: As mentioned above, it has been shown that curcumin is cytotoxic, as it induces ER stress and apoptosis. The cytotoxicity of free curcumin was compared to that of encapsulated curcumin by measuring in treated cells mitochondrial membrane potential (one measure of cytotoxicity), apoptotic markers, and ER stress-related protein expression.
as §1

[4] = system: differentiated HL-60 cells; test: ER stress response and caspase-3 cleavage (Western blot); type: cell-based; settings: 10 μM
Description: To determine whether the activation of the ER stress response is involved in curcumin-induced apoptosis, the levels of ER stress markers Bip and phosphorylated ERK, as well as the level of cleaved Caspase-3, a marker of apoptosis, were quantified by Western blot analysis of cells treated with 10 μM curcumin or encapsulated curcumin.
Briefly, treated cells were lysed in 100 μl of lysis buffer (1% Triton-X100, 150 mM NaCl, 10 mM Tris base, 1 mM EDTA, 1 mM EGTA, 50×protease inhibitor cocktail, pH 7.4). Lysed samples were subjected to 10% SDS-PAGE and transferred to membranes for Western Blot analysis using antibodies that bind to Bip, phospho-ERK, total ERK, cleaved caspase-3, and β-actin. Binding of these antibodies was visualized using commercially available enhanced chemiluminescence reagents. Chemiluminescent signals were quantified from images using ImageJ software.

[5] = system: differentiated HL-60 cells; test: Curcumin-induced intracellular calcium release (Fluo-4AM); type: cell-based; settings: 10 μM
Description: SERCA inhibitors such as curcumin cause an increase in intracellular calcium release from the ER. The ability of curcumin to induce calcium release was compared to that of PLGA nanoparticle-encapsulated curcumin. Differentiated HL-60 cells were seeded on 8-well slides in calcium-free medium and loaded with the intracellular calcium-sensitive indicator dye Fluo-4AM. Cells were treated with thapsigargin (positive control) or treated with 0.5, 1, or 10 μM curcumin, curcumin-loaded PLGA nanoparticles, or curcumin-loaded ER-targeted PLGA nanoparticles. Fluorescence intensity over time was measured in treated cells by confocal microscopy and analyzed using ImageJ software. The change in fluorescence intensity over time divided by the baseline fluorescence intensity prior to calcium addition (ΔF/FO) was plotted versus time.

[6] = system: human peripheral blood hematopoietic cells (HSCs); test: Erythroblast differentiation (CD71 / CD235a flow cytometry); type: cell-based; settings: FIG. 6A
Description: Erythroblast differentiation was measured in human peripheral blood hematopoietic cells (HSCs) treated with free curcumin or treated with curcumin-loaded nanoparticles as follows. Human CD34^+ HSCs were cultured in Iscove's modified Dulbecco medium containing 15% heat-inactivated fetal calf serum, 2 U/ml of recombinant human erythropoietin, 20 ng/ml of stem cell factor, and 10 ng/ml of interleukin-3 (IL-3). On day 4, the medium was replaced with fresh medium without IL-3 and the HSCs were cultured for another 5 days. The maturation of erythroblasts was analyzed by detecting the surface expression of CD71 and CD235a with flow cytometry.

H338Y-gp91^phox protein = test: Expression and maturation of H338Y-gp91^phox protein in neutrophils of treated transgenic mice (Western blot); type: in vivo, mouse; settings: Cybb^C1024T transgenic Cybb^-/- mice, treated 24 hours, 20 mg/kg of curcumin
Description: The expression of H338Y-gp91^phox protein in neutrophils from the Cybb^C1024T transgenic Cybb^−/− mice was examined by SDS-PAGE and Western blotting with an anti-gp91^phox antibody. To isolate neutrophils, mice were injected intraperitoneally with 3 ml of 3% thioglycollate to elicit peritoneal neutrophils. Four hours later, the mice were sacrificed, and the peritoneal cavity was washed twice with 5 ml of Hanks buffered salt solution (HBSS) with 2 mM ethylene glycol tetraacetic acid to collect the elicited peritoneal neutrophils. Peritoneal neutrophils were then washed with PBS before use.
Curcumin-loaded PLGA nanoparticles with or without the ER-targeting KDEL peptide were tested for their effects on the expression and maturation of H338Y-gp91^phox protein in Cybb^C1024T transgenic Cybb^−/− mice. Briefly, mice were untreated or treated separately with free curcumin, curcumin-loaded PLGA nanoparticles, or curcumin-loaded ER-targeted PLGA nanoparticles for 24 hours in amounts corresponding to 20 mg/kg of curcumin. Neutrophils from the mice were elicited, isolated, and analyzed for expression of H338Y-gp91^phox protein as described above.
Statistical analyses were carried out with Prism software (GraphPad Software). […]

SMILES | time to calcium influx after addition ([1]; positive control, 1.25 mM extracellular calcium) | number of apoptotic cells (Annexin V binding) [2] | mitochondrial membrane potential compared with control untreated cells [3] | ERK phosphorylation compared with untreated control cells ([4]; FIG. 5C center panel) | Bip expression compared with untreated control cells ([4]; FIG. 5C left panel) | calcium influx rate 20 s after treatment, compared with 0.5 μM curcumin-loaded nanoparticles ([1]; 10 μM) | rate of intracellular calcium increase, compared with lower concentrations of free curcumin [5] | level of calcium release, compared with 0.5 μM and 1 μM free curcumin ([5]; calcium-free medium, 40, 50 and 60 s after treatment) | percentages of more mature CD71^low CD235^high cells in treated HSCs [6] | expression of glycosylated H338Y-gp91^phox as compared to untreated mice (H338Y-gp91^phox protein)
C/C=C(/C)C(=O)O[C@H]1C(C)=C2[C@H]([C@@H]1OC(=O)CCCCCCC)[C@@](C)(OC(C)=O)C[C@H](OC(=O)CCC)[C@@]1(O)[C@H]2OC(=O)[C@@]1(C)O [Thapsigargin, thapsigargin] | ≤ 10 s | – | – | – | – | – | – | – | – | –
COc1cc(/C=C/C(=O)CC(=O)/C=C/c2ccc(O)c(OC)c2)ccc1O [free curcumin, curcumin] | – | significant increase | significant reduction | increased | increased | significantly higher | highest | significantly higher | significantly enhanced | did not show any change
